Measurements taken from PubChem BioAssay (NCI).
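Cultured in 96-well plates, cells were exposed to test compound for 48 hours across five concentrations. The concentration for 50% growth inhibition is given as GI50. TGI marks complete inhibition of growth.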

What was measured:
Assay in all cases: NCI-60 cell line screen, 48 h
PC-3 prostate = system: PC-3 prostate
HT29 colon = system: HT29 colon
COLO 205 colon = system: COLO 205 colon
MDA-MB-231 breast = system: MDA-MB-231 breast
HS 578T breast = system: HS 578T breast
KM12 colon = system: KM12 colon
TK-10 renal = system: TK-10 renal
SF-268 CNS = system: SF-268 CNS
RPMI-8226 leukemia = system: RPMI-8226 leukemia
NCI-H23 lung = system: NCI-H23 lung
CAKI-1 renal = system: CAKI-1 renal
CCRF-CEM leukemia = system: CCRF-CEM leukemia
HOP-62 NSCLC = system: HOP-62 NSCLC
HL-60(TB) leukemia = system: HL-60(TB) leukemia
SR leukemia = system: SR leukemia
U251 CNS = system: U251 CNS
NCI-H522 lung = system: NCI-H522 lung
HCT-116 colon = system: HCT-116 colon
OVCAR-8 ovarian = system: OVCAR-8 ovarian
SNB-19 CNS = system: SNB-19 CNS
NCI-H460 lung = system: NCI-H460 lung
SN12C renal = system: SN12C renal
NCI/ADR-RES ovarian = system: NCI/ADR-RES ovarian
HCC-2998 colon = system: HCC-2998 colon
UACC-257 melanoma = system: UACC-257 melanoma
EKVX NSCLC = system: EKVX NSCLC
RXF 393 renal = system: RXF 393 renal
LOX IMVI melanoma = system: LOX IMVI melanoma
SK-MEL-5 melanoma = system: SK-MEL-5 melanoma
K-562 leukemia = system: K-562 leukemia
OVCAR-4 ovarian = system: OVCAR-4 ovarian
UACC-62 melanoma = system: UACC-62 melanoma
DU-145 prostate = system: DU-145 prostate
A549 NSCLC = system: A549 NSCLC
A498 renal = system: A498 renal
UO-31 renal = system: UO-31 renal
SK-MEL-28 melanoma = system: SK-MEL-28 melanoma
SF-539 CNS = system: SF-539 CNS
MDA-MB-435 = system: MDA-MB-435
786-0 renal = system: 786-0 renal
MCF7 breast = system: MCF7 breast
SK-OV-3 ovarian = system: SK-OV-3 ovarian
SK-MEL-2 melanoma = system: SK-MEL-2 melanoma
M14 melanoma = system: M14 melanoma
MOLT-4 leukemia = system: MOLT-4 leukemia
BT-549 breast = system: BT-549 breast
SF-295 CNS = system: SF-295 CNS
T-47D breast = system: T-47D breast
IGROV1 ovarian = system: IGROV1 ovarian
ACHN renal = system: ACHN renal
OVCAR-3 ovarian = system: OVCAR-3 ovarian
HCT-15 colon = system: HCT-15 colon
OVCAR-5 ovarian = system: OVCAR-5 ovarian
MALME-3M melanoma = system: MALME-3M melanoma
NCI-H226 lung = system: NCI-H226 lung
HOP-92 NSCLC = system: HOP-92 NSCLC
SW-620 colon = system: SW-620 colon
SNB-75 CNS = system: SNB-75 CNS

## Cc1ccc(C2=Nc3c(N)nc(N)nc3NC(c3cccc(Nc4ccnc5cc(C(F)(F)F)ccc45)c3)C2)cc1 (stereo not given)
PC-3 prostate
  GI50: 1.59 µM
  TGI: 4.38 µM
HT29 colon
  GI50: 2.46 µM
  TGI: 5.89 µM
COLO 205 colon
  GI50: 1.71 µM
  TGI: 3.68 µM
MDA-MB-231 breast
  GI50: 1.67 µM
  TGI: 3.26 µM
HS 578T breast
  GI50: 1.66 µM
  TGI: 4.46 µM
KM12 colon
  GI50: 1.71 µM
  TGI: 3.63 µM
TK-10 renal
  GI50: 4.11 µM
  TGI: 16.5 µM
SF-268 CNS
  GI50: 1.93 µM
  TGI: 4.19 µM
RPMI-8226 leukemia
  GI50: 1.9 µM
  TGI: 4.7 µM
NCI-H23 lung
  GI50: 2.18 µM
  TGI: 5.58 µM
CAKI-1 renal
  GI50: 2.29 µM
  TGI: 8.71 µM
CCRF-CEM leukemia
  GI50: 2.21 µM
  TGI: 5.73 µM
HOP-62 NSCLC
  GI50: 2.66 µM
  TGI: 9.4 µM
HL-60(TB) leukemia
  GI50: 2.38 µM
  TGI: 5.54 µM
SR leukemia
  GI50: 1.53 µM
  TGI: 5.44 µM
U251 CNS
  GI50: 1.82 µM
  TGI: 3.62 µM
NCI-H522 lung
  GI50: 1.56 µM
  TGI: 3.49 µM
HCT-116 colon
  GI50: 1.61 µM
  TGI: 2.96 µM
OVCAR-8 ovarian
  GI50: 2.31 µM
  TGI: 5.6 µM
SNB-19 CNS
  GI50: 2.27 µM
  TGI: 7.08 µM
NCI-H460 lung
  GI50: 1.87 µM
  TGI: 3.68 µM
SN12C renal
  GI50: 2.03 µM
  TGI: 4.71 µM
NCI/ADR-RES ovarian
  GI50: 2.29 µM
  TGI: 6.15 µM
HCC-2998 colon
  GI50: 1.77 µM
  TGI: 3.33 µM
UACC-257 melanoma
  GI50: 2.12 µM
  TGI: 4.42 µM
EKVX NSCLC
  GI50: 2.91 µM
  TGI: 11.5 µM
RXF 393 renal
  GI50: 1.41 µM
  TGI: 2.87 µM
LOX IMVI melanoma
  GI50: 1.74 µM
  TGI: 3.3 µM
SK-MEL-5 melanoma
  GI50: 1.6 µM
  TGI: 2.98 µM
K-562 leukemia
  GI50: 1.37 µM
  TGI: 6.98 µM
OVCAR-4 ovarian
  GI50: 3.02 µM
  TGI: 14 µM
UACC-62 melanoma
  GI50: 1.7 µM
  TGI: 3.46 µM
DU-145 prostate
  GI50: 2.78 µM
  TGI: 6.52 µM
A549 NSCLC
  GI50: 2.88 µM
  TGI: 10.7 µM
A498 renal
  GI50: 2.15 µM
  TGI: 8.02 µM
UO-31 renal
  GI50: 1.51 µM
  TGI: 3.03 µM
SK-MEL-28 melanoma
  GI50: 1.7 µM
  TGI: 3.33 µM
SF-539 CNS
  GI50: 1.77 µM
  TGI: 3.49 µM
MDA-MB-435
  GI50: 1.2 µM
  TGI: 2.63 µM
786-0 renal
  GI50: 1.51 µM
  TGI: 2.9 µM
MCF7 breast
  GI50: 1.84 µM
  TGI: 4.99 µM
SK-OV-3 ovarian
  GI50: 3.56 µM
  TGI: 13.4 µM
SK-MEL-2 melanoma
  GI50: 1.95 µM
  TGI: 4.05 µM
M14 melanoma
  GI50: 1.72 µM
  TGI: 3.43 µM
MOLT-4 leukemia
  GI50: 2.43 µM
  TGI: 6.43 µM
BT-549 breast
  GI50: 1.66 µM
  TGI: 3.36 µM
SF-295 CNS
  GI50: 1.56 µM
  TGI: 3.17 µM
T-47D breast
  GI50: 2.22 µM
  TGI: 8.73 µM
IGROV1 ovarian
  GI50: 1.89 µM
  TGI: 4.77 µM
ACHN renal
  GI50: 2.8 µM
  TGI: 11.1 µM
OVCAR-3 ovarian
  GI50: 1.78 µM
  TGI: 3.53 µM
HCT-15 colon
  GI50: 1.76 µM
  TGI: 3.57 µM
OVCAR-5 ovarian
  GI50: 3.69 µM
  TGI: 15.7 µM
MALME-3M melanoma
  GI50: 1.86 µM
  TGI: 3.87 µM
NCI-H226 lung
  GI50: 4.88 µM
  TGI: 22.3 µM
HOP-92 NSCLC
  GI50: 1.35 µM
  TGI: 2.9 µM
SW-620 colon
  GI50: 1.7 µM
  TGI: 3.52 µM

## O=c1ncc(I)cn1C1CC(O)C(CO)O1 (stereo not given)
PC-3 prostate
  GI50: > 3250 µM
  TGI: > 3250 µM
HT29 colon
  GI50: 1830 µM
  TGI: > 3250 µM
COLO 205 colon
  GI50: 1210 µM
  TGI: > 3250 µM
MDA-MB-231 breast
  GI50: > 3250 µM
  TGI: > 3250 µM
HS 578T breast
  GI50: > 3250 µM
  TGI: > 3250 µM
KM12 colon
  GI50: 1740 µM
  TGI: > 3250 µM
TK-10 renal
  GI50: > 3250 µM
  TGI: > 3250 µM
SF-268 CNS
  GI50: 2110 µM
  TGI: > 3250 µM
RPMI-8226 leukemia
  GI50: > 3250 µM
  TGI: > 3250 µM
NCI-H23 lung
  GI50: 1620 µM
  TGI: > 3250 µM
CAKI-1 renal
  GI50: 1470 µM
  TGI: > 3250 µM
CCRF-CEM leukemia
  GI50: 709 µM
  TGI: > 3250 µM
HOP-62 NSCLC
  GI50: 2940 µM
  TGI: > 3250 µM
HL-60(TB) leukemia
  GI50: 613 µM
  TGI: > 3250 µM
SR leukemia
  GI50: 1170 µM
  TGI: > 3250 µM
U251 CNS
  GI50: 1160 µM
  TGI: > 3250 µM
NCI-H522 lung
  GI50: 668 µM
  TGI: 1250 µM
HCT-116 colon
  GI50: 1310 µM
  TGI: > 3250 µM
OVCAR-8 ovarian
  GI50: 2610 µM
  TGI: > 3250 µM
SNB-19 CNS
  GI50: > 3250 µM
  TGI: > 3250 µM
NCI-H460 lung
  GI50: 1540 µM
  TGI: > 3250 µM
SN12C renal
  GI50: 2710 µM
  TGI: > 3250 µM
NCI/ADR-RES ovarian
  GI50: 1750 µM
  TGI: > 3250 µM
HCC-2998 colon
  GI50: 2910 µM
  TGI: > 3250 µM
UACC-257 melanoma
  GI50: > 3250 µM
  TGI: > 3250 µM
EKVX NSCLC
  GI50: > 3250 µM
  TGI: > 3250 µM
RXF 393 renal
  GI50: > 3250 µM
  TGI: > 3250 µM
LOX IMVI melanoma
  GI50: 982 µM
  TGI: > 3250 µM
SK-MEL-5 melanoma
  GI50: 2000 µM
  TGI: > 3250 µM
K-562 leukemia
  GI50: 1220 µM
  TGI: > 3250 µM
OVCAR-4 ovarian
  GI50: 1510 µM
  TGI: > 3250 µM
UACC-62 melanoma
  GI50: 1480 µM
  TGI: > 3250 µM
DU-145 prostate
  GI50: 1530 µM
  TGI: > 3250 µM
A549 NSCLC
  GI50: 2460 µM
  TGI: > 3250 µM
A498 renal
  TGI: > 3250 µM
UO-31 renal
  GI50: 711 µM
  TGI: 1760 µM
SK-MEL-28 melanoma
  GI50: 3150 µM
  TGI: > 3250 µM
SF-539 CNS
  GI50: 2360 µM
  TGI: > 3250 µM
MDA-MB-435
  GI50: 1020 µM
  TGI: > 3250 µM
786-0 renal
  GI50: 3100 µM
  TGI: > 3250 µM
MCF7 breast
  GI50: 1430 µM
  TGI: > 3250 µM
SK-OV-3 ovarian
  GI50: 2100 µM
  TGI: > 3250 µM
SK-MEL-2 melanoma
  GI50: > 3250 µM
  TGI: > 3250 µM
M14 melanoma
  GI50: 1110 µM
  TGI: > 3250 µM
MOLT-4 leukemia
  GI50: 1170 µM
  TGI: > 3250 µM
BT-549 breast
  GI50: 1510 µM
  TGI: > 3250 µM
T-47D breast
  GI50: 2220 µM
  TGI: > 3250 µM
ACHN renal
  GI50: 3120 µM
  TGI: > 3250 µM
OVCAR-3 ovarian
  GI50: 1070 µM
  TGI: > 3250 µM
HCT-15 colon
  GI50: 1680 µM
  TGI: > 3250 µM
OVCAR-5 ovarian
  GI50: > 3250 µM
  TGI: > 3250 µM
MALME-3M melanoma
  GI50: > 3250 µM
  TGI: > 3250 µM
NCI-H226 lung
  GI50: > 3250 µM
  TGI: > 3250 µM
HOP-92 NSCLC
  GI50: > 3250 µM
  TGI: > 3250 µM
SW-620 colon
  GI50: 1130 µM
  TGI: > 3250 µM
SNB-75 CNS
  GI50: > 3250 µM
  TGI: > 3250 µM
